Test results published in US10294202B2, “Pyrrolidinones as herbicides” (FMC Corporation, priority 2013, dated 2019).

Legend:
Assay in all cases: Test C pre-/postemergence herbicide test
sunflower = type: in vivo, Helianthus annuus; details: Preemergence
From the text: (§1) Seeds of plant species selected from blackgrass (Alopecurus myosuroides), ryegrass, Italian (Italian ryegrass, Lolium multiflorum), wheat (winter wheat, Triticum aestivum), galium (catchweed bedstraw, Galium aparine), corn (Zea mays), crabgrass, large (large crabgrass, Digitaria sanguinalis), foxtail, giant (giant foxtail, Setaria faberii), johnsongrass (Sorghum halepense), lambsquarters (Chenopodium album), morningglory (Ipomoea coccinea), nutsedge, yellow (yellow nutsedge, Cyperus esculentus), pigweed (Amaranthus retroflexus), ragweed (common ragweed, Ambrosia elatior), soybean (Glycine max), barnyardgrass (Echinochloa crus-galli), oilseed rape (Brassica napus), waterhemp (common waterhemp, Amaranthus rudis), kochia (Kochia scoparia), oat, wild (wild oat, Avena fatua), surinam grass (Brachiaria decumbens), foxtail, green (green foxtail, Setaria viridis), goosegrass (Eleusine indica), bromegrass, downy (downy bromegrass, Bromus tectorum), nightshade (eastern black nightshade, Solanum ptycanthum), cocklebur (common cocklebur, Xanthium strumarium), cupgrass, woolly (woolly cupgrass, Eriochloa villosa), bermudagrass (Cynodon dactylon), sunflower, (common oilseed sunflower, Helianthus annuus), Russian thistle (Salsola kali) and velvetleaf (Abutilon theophrasti) were planted into a blend of loam soil and sand and treated preemergence with test chemicals formulated in a non-phytotoxic solvent mixture which included a surfactant. At the same time, plants selected from these crop and weed species and also barley (winter barley, Hordeum vulgare), […]), chickweed (common chickweed, Stellaria media), deadnettle (henbit deadnettle, Lamium amplexicaule), and canarygrass (littleseed canarygrass, Phalaris minor) were planted in pots containing Redi-Earth® planting medium (Scotts Company, 14111 Scottslawn Road, Marysville, Ohio 43041) comprising spaghnum peat moss, vermiculite, wetting agent and starter nutrients and treated with postemergence applications of test chemicals formulated in the same manner. Plants ranged in height from 2 to 18 cm (1- to 4-leaf stage) for postemergence treatments. Treated plants and controls were maintained in a greenhouse for 13 to 15 days, after which time all species were compared to controls and visually evaluated. Plant response ratings, summarized in Table C, are based on a scale of 0 to 100 where 0 is no effect and 100 is complete control. A dash (-) response means no test result.

nightshade = type: in vivo, Solanum ptycanthum; details: Preemergence
Procedure, shortened: (§2)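 Greenhouse plants scored visually against untreated controls 13–15 days after treatment, 0 = no effect, 100 = complete control. Test chemicals in a non-phytotoxic solvent with surfactant were applied either to soil (loam/sand) at planting or to foliage of 1- to 4-leaf plants, 2–18 cm tall.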

cupgrass, woolly = type: in vivo, Eriochloa villosa; details: Preemergence; for Cupgrass, Woolly plant response rating: 31 g ai/ha
From the text: as §1

bromegrass, downy = type: in vivo, Bromus tectorum; details: Preemergence; for Bromegrass, Downy plant response rating: 31 g ai/ha
From the text: as §1

cocklebur = type: in vivo, Xanthium strumarium; details: Preemergence; for Cocklebur plant response rating: 31 g ai/ha
From the text: as §1

foxtail, green = type: in vivo, Setaria viridis; details: Preemergence; for Foxtail, Green plant response rating: 31 g ai/ha
Procedure, shortened: as §2

bermudagrass = type: in vivo, Cynodon dactylon; details: Preemergence; for Bermudagrass plant response rating: 31 g ai/ha
Procedure, shortened: as §2

goosegrass = type: in vivo, Eleusine indica; details: Preemergence; for Goosegrass plant response rating: 31 g ai/ha
From the text: as §1

Russian thistle = type: in vivo, Salsola kali; details: Preemergence
From the text: as §1

surinam grass = type: in vivo, Brachiaria decumbens; details: Preemergence
Procedure, shortened: as §2

[1] = 125 g ai/ha, scale 0 to 100 (0 no effect, 100 complete control)
[2] = scale 0 to 100 (0 no effect, 100 complete control)
[3] = 250 g ai/ha, scale 0 to 100 (0 no effect, 100 complete control)
[4] = 31 g ai/ha, scale 0 to 100, 0 is no effect and 100 is complete control
[5] = scale 0 to 100, 0 is no effect and 100 is complete control

Structure (SMILES)	Plant response rating Sunflower (sunflower; 62 g ai/ha, scale 0 to 100)	Plant response rating Sunflower (sunflower; [1])	Plant response rating, Nightshade (nightshade; [1])	Plant response rating, Cupgrass, Woolly (cupgrass, woolly; 62 g ai/ha, scale 0 to 100)	Plant response rating, Cupgrass, Woolly (cupgrass, woolly; [1])	Plant response rating, Cupgrass, Woolly (cupgrass, woolly; [3])	Plant response rating, Bromegrass, Downy (bromegrass, downy; 62 g ai/ha, scale 0 to 100)	Plant response rating, Bromegrass, Downy (bromegrass, downy; [1])	Plant response rating, Bromegrass, Downy (bromegrass, downy; [3])	Plant response rating, Foxtail, Green (foxtail, green; 62 g ai/ha, scale 0 to 100)	Plant response rating, Foxtail, Green (foxtail, green; [1])	Plant response rating, Foxtail, Green (foxtail, green; [3])	Plant response rating, Bermudagrass (bermudagrass; 62 g ai/ha, scale 0 to 100)	Plant response rating, Bermudagrass (bermudagrass; [1])	Plant response rating, Bermudagrass (bermudagrass; [3])	Plant response rating, Goosegrass (goosegrass; 62 g ai/ha, scale 0 to 100)	Plant response rating, Goosegrass (goosegrass; [1])	Plant response rating, Russian Thistle (Russian thistle; 62 g ai/ha, scale 0 to 100)	Plant response rating, Surinam Grass (surinam grass; 62 g ai/ha, scale 0 to 100)	Plant response rating, Surinam Grass (surinam grass; [1])	also measured
O=C1NCC(c2ccc(F)c(Cl)c2)C1C(=O)Nc1cccc(F)c1F (stereo not drawn) [Compound 59]	5	15	25	70	80	80	0	0	20	90	90	98	20	40	50	25	35	0	35	60	Cupgrass, Woolly plant response rating (cupgrass, woolly; [2]): 40; Bromegrass, Downy plant response rating (bromegrass, downy; [2]): 0; Plant response rating, Cocklebur (cocklebur; 62 g ai/ha, scale 0 to 100): 0; Foxtail, Green plant response rating (foxtail, green; [2]): 85; Bermudagrass plant response rating (bermudagrass; [2]): 20; Goosegrass plant response rating (goosegrass; [2]): 15; Plant response rating, Russian Thistle (Russian thistle; [1]): 0
O=C1NCC(c2cccc(Br)c2)C1C(=O)Nc1cccc(F)c1F (stereo not drawn) [Compound 64]	0	0	0	70	85	90	0	0	50	85	90	98	0	25	55	20	25	0	50	65	Plant response rating, Nightshade (nightshade; 62 g ai/ha, scale 0 to 100): 0; Cupgrass, Woolly plant response rating (cupgrass, woolly; [2]): 30; Bromegrass, Downy plant response rating (bromegrass, downy; [2]): 0; Plant response rating, Cocklebur (cocklebur; 62 g ai/ha, scale 0 to 100): 0; Foxtail, Green plant response rating (foxtail, green; [2]): 70; Bermudagrass plant response rating (bermudagrass; [2]): 0; Goosegrass plant response rating (goosegrass; [2]): 20; Plant response rating, Russian Thistle (Russian thistle; [1]): 0
O=C1NCC(c2cccc(Br)c2)C1C(=O)Nc1ccccc1F (stereo not drawn) [Compound 66]	0	0	0	75	80	85	0	0	5	80	90	98	0	0	0	5	10	0	0	75	Sunflower plant response rating (sunflower; [4]): 0; Nightshade plant response rating (nightshade; [4]): 0; Plant response rating, Nightshade (nightshade; 62 g ai/ha, scale 0 to 100): 0; Cupgrass, Woolly plant response rating (cupgrass, woolly; [5]): 10; Bromegrass, Downy plant response rating (bromegrass, downy; [5]): 0; Cocklebur plant response rating (cocklebur; [5]): 0; Foxtail, Green plant response rating (foxtail, green; [5]): 50; Bermudagrass plant response rating (bermudagrass; [5]): 0; Goosegrass plant response rating (goosegrass; [5]): 5; Russian Thistle plant response rating (Russian thistle; [4]): 0; Plant response rating, Russian Thistle (Russian thistle; [1]): 0; Surinam Grass plant response rating (surinam grass; [4]): 0
Cc1ccccc1NC(=O)C1C(=O)NCC1c1cc(F)c(F)c(F)c1 (racemic) [Compound 35]	0	10	0	80	85	90	0	5	40	98	98	98	0	0	75	0	5	0	90	100	Plant response rating, Nightshade (nightshade; 62 g ai/ha, scale 0 to 100): 0; Cupgrass, Woolly plant response rating (cupgrass, woolly; [2]): 55; Bromegrass, Downy plant response rating (bromegrass, downy; [2]): 0; Cocklebur plant response rating (cocklebur; [2]): 0; Plant response rating, Cocklebur (cocklebur; 62 g ai/ha, scale 0 to 100): 0; Plant response rating, Cocklebur (cocklebur; [1]): 0; Plant response rating, Cocklebur (cocklebur; [3]): 0; Foxtail, Green plant response rating (foxtail, green; [2]): 90; Bermudagrass plant response rating (bermudagrass; [2]): 0; Goosegrass plant response rating (goosegrass; [2]): 0
